Results reported in patent US20230000797A1, “COMPOSITIONS AND METHODS FOR TREATING MOTOR DISORDERS” (ARIZONA BOARD OF REGENTS ON BEHALF OF THE UNIVERSITY OF …, priority 2015, published 2023).
“Also recorded” adds a separate entry of the source.

Assays:
[1] = tested on: patients with PD; experiment: Low-dose ketamine infusion in PD patient case studies (retrospective chart review); format: in vivo, human
Protocol: We report on five cases of low-dose ketamine infusion in patients with PD identified by a retrospective chart review (Table 1). Ketamine was indicated for a variety of co-morbid conditions. The level of documentation of PD and LID symptoms pre and post-infusion was variable, but in many cases included standardized clinical rating scales collected by Movement Disorder specialists. […] Patients were treated in the intensive care unit using a protocol developed by one of the authors (ME) for treatment of intractable headache that specified titration of ketamine to a target rate of 0.15 mg/kg/hr for a 72 hr period.

[2] = tested on: striatal DA content; experiment: Electrochemical detection (HPLC-EC) of striatal DA content; format: in vivo, rat
Protocol: Measurement of dopamine content: Coronal brain slices were collected and 2 mm steel biopsy punches were used to sample striatal tissue. Samples from left and right hemispheres were collected and immediately flash frozen on an aluminum pan at −70° C., as published (Flores et al., 2014). Samples massed at 2.5±0.5 mg and were then homogenized in dilute perchloric acid. High performance liquid chromatography with electrochemical detection (HPLC-EC) was used to quantify DA.

[3] = tested on: unilaterally 6-hydroxydopamine (6-OHDA)-lesioned PD rats; experiment: Development of LID under once-weekly 10-hour infusion paradigm (LAO AIMs); format: in vivo, rat; conditions: n=9 per group; for animals that did not develop any dyskinesia or only very subtle dyskinesia: 6 and 12 mg/kg L-DOPA periods
Protocol: Unilaterally 6-hydroxydopamine (6-OHDA)-lesioned PD rats were injected daily with L-DOPA (days 0-13: 6 mg/kg; days 14-28: 12 mg/kg; i.p.) to induce dyskinesia and tested for limb, axial and oral (LAO) abnormal involuntary movements (AIMs) twice a week for 3 hours by blinded investigators.

[4] = tested on: awake and behaving naive rats; experiment: Local-field activity recordings in motor cortex (M1) and dorsolateral striatum (DLS), naive rats; format: in vivo, rat; conditions: 20 mg/kg, 5 i.p. injections every 2 hours
Protocol: Using the 10-hour racemic ketamine paradigm (5 i.p. injections every 2 hours), simultaneous local-field activity in multiple brain structures in two awake and behaving naive rats was measured. Recordings were acquired from a 64 channel fixed electrode array. Average response across 2 animals and 5 sessions was obtained.

[5] = tested on: unilateral 6-hydroxydopamine (6-OHDA)-lesioned rats; experiment: Local-field activity recordings in M1 and DLS, rodent Parkinson's disease model; format: in vivo, rat; conditions: 20 mg/kg, 5 i.p. injections every 2 hours
Protocol: Using a 10-hour racemic ketamine paradigm (5 i.p. injections every 2 hours), simultaneous measurement of local-field activity in multiple brain structures in three awake and behaving unilateral 6-hydroxydopamine (6-OHDA)-lesioned rats, a common model of Parkinson's disease. Recordings were acquired from a 64 channel fixed electrode array. Average response across 3 animals. Power spectrogram from a 10 hour session created by averaging spectra acquired. Vertical lines indicate ketamine injection times.

[6] = tested on: unilaterally 6-OHDA-lesioned LID rats; experiment: L-DOPA-induced AIMs in the preclinical rat LID model (10 hr ketamine 'infusion' paradigm or acute injection); conditions: cohort #1; for L-DOPA-induced contralateral locomotor behavior / ipsiversive turning behavior (worsening of the Parkinsonism): all tested doses; for L-DOPA-induced contralateral locomotor behavior: 10 hr 'infusion'; for ipsiversive turning behavior (worsening of the Parkinsonism): in the presence of L-DOPA
[7] = tested on: tyrosine hydroxylase (TH); experiment: Semi-quantitative western analysis of striatal tyrosine hydroxylase expression; format: in vivo, rat; conditions: unilateral lesion; TH normalized to β-actin; n=15
Protocol: Western analysis of tyrosine hydroxylase (TH) content: After the tissue punch, described above, the remaining striata from left and right hemispheres were immediately flash frozen and stored at —70 ° C. Total protein was prepared and semi-quantitative western analysis was conducted as described (Flores et al., 2014; Yue et al., 2014) with 3 modifications. 30 μg of protein/sample was loaded and analyzed on the same blot. Secondary antibody dilution for β-actin: 1:10,000. Images were analyzed with the G:Box XR5 Chemi system (Syngene, Frederick, Md.) using GeneSys v. 1.4.0.0.

[8] = DLS and M1, after each injection

CNC1(c2ccccc2Cl)CCCCC1=O (racemic) [ketamine, (RS)-2-(2-Chlorophenyl)-2-(methylamino)cyclohexanone]
UPDRS Dyskinesia score (sum of items 32-34) ([1]; case #1, 72 hr low-dose ketamine infusion): reduced
dyskinesia ([1]; case #1, at second infusion 3 years later despite increase in L-DOPA dose): free of dyskinesia
dyskinesia ([1]; case #1, during and after the infusion, carbidopa/L-DOPA dosages unchanged): improved markedly
severe tremor ([1]; case #1, during second infusion, tremor had returned 3 weeks later): resolved acutely
% dyskinesia on time ([1]; case #1, patient diary, 72 hr low-dose ketamine infusion): reduced
LID ([1]; case #1, weeks 2-4 post-K): completely resolved
dyskinesia ([1]; case #2, low-dose ketamine infusion): dramatic reduction
depression ([1]; case #3): dramatically improved
motor symptoms ([1]; case #3, during the infusion): acutely improved
dyskinesia ([1]; case #3, following the infusion): completely subsided
headache ([1]; case #4): improved
effect on motor symptoms ([1]; cases #4 and 5 (STN DBS-treated)): little effect
tolerability and safety ([1]; five PD case reports overall): excellent tolerability and safety
striatal [DA] ([2]; acute i.p. 20 mg/kg vs. saline, 30 min before euthanasia): unchanged
reduction of mean LAO AIMs scores ([3]; 10-hours infusion paradigm once a week, daily L-DOPA 6 then 12 mg/kg i.p.): 50%
animals that did not develop any dyskinesia or only very subtle dyskinesia [3]: 4 of 9
coherence in the HFO frequency band ([4]; M1-DLS): increased
high-frequency activity (120-140 Hz) ([4]; M1 and DLS, after each injection): clear increase
correlation (r) of coherence in HFO and beta bands ([4]; n=5 sessions): −0.65
coherence in the beta band ([4]; with successive injections): decreased
gamma band activity (40-60 Hz) [5, 8]: clear increase
high-frequency activity (120-140 Hz) [5, 8]: clear increase
beta-gamma cross-frequency coupling (CFC) in the DLS ([5]; following each injection, n=15 sessions across 3 animals): reduced
change in the already-reduced AIMs score ([6]; 10 mg/kg ketamine-'infusion' given after the other treatments (test for sensitization)): No change
persistent reduction of AIMs scores lasted (post-injection) ([6]; 20 mg/kg ketamine-'infusion'): at least 55 days
L-DOPA-induced contralateral locomotor behavior [6]: did not significantly change
L-DOPA-induced contralateral locomotor behavior ([6]; listed as Ketamine): did not have a significant effect
ipsiversive turning behavior (worsening of the Parkinsonism) [6]: did not acutely induce
ipsiversive turning behavior (worsening of the Parkinsonism) ([6]; listed as Ketamine): did not induce ipsilateral rotations
anti-dyskinetic effect (LID / AIMs) ([6]; low-dose ketamine given for a 10 hr period, 5-20 mg/kg): dose-dependent long-term anti-dyskinetic effect; also recorded: Long-term dose-dependent reduction
LAO-AIMs score, pre-K (20 mg/kg) vs last testing session ([6]; n=5, p<0.05): significantly reduced

NC12CC3CC(CC(C3)C1)C2 [amantadine]
LID ([1]; case #2, prior treatment, 200 mg daily): failed to improve

CN[C@@]1(c2ccccc2Cl)CCCCC1=O [R-ketamine]
animals that did not develop any dyskinesia or only very subtle dyskinesia [3]: 1

NCCc1cc(O)c(O)cc1O [6-OHDA, 6-hydroxydopamine]
reduction of striatal DA content in the lesioned side ([2]; unilateral lesion, lesioned vs unlesioned side): > 95%
reduction of striatal TH expression in the lesioned side [7]: 87%
